Measured values as given in patent publication US7741464B2, “Compositions and methods of using CRMP-1 and its fragments for treating cancer” (Advpharma Inc., priority 2007, dated 2010).
pIC50: −log10 of the molar value. Like-named read-outs stand apart in the source and are kept apart here.

What was measured:
[1] = tested on: H520 stable transfectants; test: Chemosensitivity (MTT cytotoxicity) of stable transfectants; format: cell-based; conditions: Homo sapiens, read-out: IC50 of chemical agent
Text: (§1) Three human cancer cell lines, including lung cancer cell line H520 and two human prostate cancer cell lines (PC-3 and DU145) were applied for selection of stable transfectants. Four expression plasmids, including pNCRMP1, pNCN1, pNCN3, and pNCN4, and the pCI-neo vector (as control plasmid) were used for transfection, respectively. The general cultivation condition and transfection procedures were the same as described in Example 3. The transfected cells were further cultivated under the same conditions as their parental cell lines and selected with 0.6-1 mg antibiotic G418 per ml (Kao et al., Oncogene 16: 546-554 (1998); Xiaolin et al, Cancer Research 65: 9762-9770 (2005)).
(§2) Three agents, including caffeic acid phenethyl ester (CAPE; Sigma, US), Adriamycin™ (doxorubicin) (Pharmacia & Upjohn S.P.A. Milan, Italy), and paclitaxel (Taxol; Bristol-Myers Squibb Co., Wallingford, Conn.), were dissolved in DMSO (dimethyl sulfoxide; Sigma) for preparation of stock solution, respectively. A serial dilution was prepared with DPBS buffer for chemosensitivity tests. The human lung squamous carcinoma stable transfectants H520 were treated with both CAPE and Adriamycin™ (doxorubicin) for four different concentrations, e.g. 0.05, 0.01, 0.002, and 0.0004 mM, while the administering of paclitaxel was performed at different concentrations, e.g. 1000, 200, 40, and 8 nM. Both types of prostate stable transfectants were only treated with paclitaxel for eight concentrations ranging from 0.1 mM to 1.28 nM with 1/5 dilution each step.
(§3) MTT (3-(4,5-dimethylthiazol-2-yl)-2,5-diphenyltetrazolium bromide; Sigma, Inc.) assay (Monks et al., J. Natl. Cancer Inst. 83:757-766 (1991); Paull et al, J. Natl. Cancer Inst. 81:1088-1092 (1989)) was applied for studying the cytotoxic effect of indicated agent. The absorbance was measured both at 545 nm and at 690 nm (served as reference) using the 96-well spectrophotometer reader (Emax, Molecular Device Inc., California, US) (Chen et al., Yi Xue Za Zhi (Taipei) 46:7-16 (1990)). The relative growth inhibition was calculated as follows: Relative growth inhibition=100%×(1−(OD545nm (Treated cells)−OD690nm(Treated cells))÷(OD545nm(untreated cells)−OD690nm(untreated cells)))
(§4) The 50% inhibition concentration (IC50) was determined after graphical plotting of spectrophotometric measurements and interpolation by EXCEL software.

[2] = tested on: DU145 stable transfectants; test: as above; format: cell-based; conditions: Homo sapiens, read-out: IC50 of chemical agent
Text: as §1, §2, §3, §4

PZ-HPV-7 cells [3] = test: Chemosensitivity (MTT cytotoxicity) assay; format: cell-based; conditions: Homo sapiens; PZ-HPV-7, MTT; read-out: IC50 of chemical agent
Description: Three agents, including caffeic acid phenethyl ester (CAPE; Sigma, US), Adriamycin™ (doxorubicin) (Pharmacia & Upjohn S.P.A. Milan, Italy), and paclitaxel (Taxol; Bristol-Myers Squibb Co., Wallingford, Conn.), were dissolved in DMSO (dimethyl sulfoxide; Sigma) for preparation of stock solution, respectively. A serial dilution was prepared with DPBS buffer for chemosensitivity tests. […] Both types of prostate stable transfectants were only treated with paclitaxel for eight concentrations ranging from 0.1 mM to 1.28 nM with 1/5 dilution each step.

[4] = tested on: PC-3 transient transfectants; test: Chemosensitivity of transient transfectants (cell counting); format: cell-based; conditions: Homo sapiens, 72 h, read-out: IC50 of chemical agent
Description: (§5) Six human cancer cell lines, including human colon cancer cell lines Caco-2, CC-M1, DLD-1; human prostate cancer cell lines DU145, PC-3; and human breast cancer cell line MCF-7, were tested in an experiment on improvement of chemosensitivity. Two expression plasmids, pNCRMP1 and pNCN3, and the pCI-neo vector (control plasmid), were used for transfection, respectively. The general cultivation conditions and transfection procedures were the same as described in Example 3.
(§6) Treatment of transient transfected cell lines using chemical agent was immediately performed as follows, and quantification of viable cells was performed by counting using hemocytometer after 3-days incubation at 37° C.: • (1) Three types of transient transfected human colorectal cancer cells were treated with 5-fluorouracil; • (2) The transient transfected human prostate cancer cell line DU145 was treated with Adriamycin™ (doxorubicin), cyclophosphamide and etoposide; • (3) The transient transfected human prostate cancer cell line PC3 was treated with cyclophosphamide, etoposide, and paclitaxel; and, • (4) The transient transfected human breast cancer cell line MCF-7 was treated with Adriamycin™ (doxorubicin) and paclitaxel.

[5] = tested on: MCF-7 transient transfectants; test: as above; format: cell-based; conditions: Homo sapiens, MCF7, 72 h, read-out: IC50 of chemical agent
Description: as §5, §6

PC-3 cells = test: Cytotoxic effect of recombinant e-rCN3 protein; format: cell-based, human; conditions: 5 μM applied twice for 6 hours with an interval of 16 hours
Description: (§7) The growth inhibition effect of recombinant e-rCN3 protein was studied with five human cell lines, including the human colon cancer cell line CC-M1, the human breast cancer cell line MCF-7, two human prostate cancer cell lines PC-3 and DU145, and the human prostate epithelium cell line PZ-HPV-7. […] The cytotoxicity assay were performed using MTT method as described by Monks et al. (J. National Cancer Institute 83:757-767 (1991)) or using cell counting-based Hemocytometer method (R. Ian Freshney, WILEY-LISS: 186, 309-312 (2000)) as described in Example 3 and Example 9. Five micromolar (μM) e-rCN3 was applied twice on three prostate cell lines for 6 hours with an interval of 16 hours, while the human colon cancer cell and breast cancer cells were treated with three cycles.

CC-M1 cells = test: Cytotoxic effect of recombinant e-rCN3 protein; format: cell-based, human; conditions: 5 μM, three treatment cycles
Description: as §7

PZ-HPV-7 cells [6] = test: Cytotoxic effect of recombinant e-rCN3 protein; format: cell-based, human; conditions: 5 μM applied twice for 6 hours with an interval of 16 hours
Description: as §7

MCF-7 cells = test: Cytotoxic effect of recombinant e-rCN3 protein; format: cell-based, human; conditions: 5 μM, three treatment cycles
Description: as §7

Row | Compound | pIC50 ([1]; NCI-H520, stable transfectant H520/pCI-neo/1 (control plasmid), MTT) | pIC50 ([1]; NCI-H520, stable transfectant H520/pNCN1/1, MTT) | pIC50 ([1]; NCI-H520, stable transfectant H520/pNCN3/1, MTT) | pIC50 ([1]; NCI-H520, stable transfectant H520/pNCN4/1, MTT) | pIC50 ([1]; NCI-H520, stable transfectant H520/pNCRMP1/1, MTT) | pIC50 ([2]; DU-145, stable transfectant DU145/pCI-neo/7 (control plasmid), MTT) | pIC50 ([2]; DU-145, stable transfectant DU145/pNCRMP1/2, MTT) | pIC50 (PZ-HPV-7 cells [3]) | pIC50 ([4]; transient transfectant PC-3/pCIneo (control plasmid), 3-days incubation) | pIC50 ([4]; transient transfectant PC-3/pNCN3, 3-days incubation) | pIC50 ([4]; transient transfectant PC-3/pNCRMP1, 3-days incubation) | pIC50 ([5]; transient transfectant MCF-7/pCIneo (control plasmid), 3-days incubation) | pIC50 ([5]; transient transfectant MCF-7/pNCN3, 3-days incubation) | pIC50 ([5]; transient transfectant MCF-7/pNCRMP1, 3-days incubation) | growth inhibition effect (PC-3 cells) | growth inhibition effect (CC-M1 cells) | growth inhibition effect (PZ-HPV-7 cells [6]) | growth inhibition effect (MCF-7 cells)
1 | CC(=O)O[C@H]1C(=O)[C@@]2(C)[C@H]([C@H](OC(=O)c3ccccc3)[C@]3(O)C[C@H](OC(=O)[C@H](O)[C@@H](NC(=O)c4ccccc4)c4ccccc4)C(C)=C1C3(C)C)[C@]1(OC(C)=O)CO[C@@H]1C[C@@H]2O [paclitaxel] | 7.51 | 7.92 | > 8.10 | > 8.10 | 7.92 | 5.10 | 7.70 | 5.19 | 7.06 | 8.00 | 7.16 | > 9.00 | 7.36 | > 9.00 | – | – | – | –
2 | e-rCN3: recombinant CN3 domain of hCRMP-1 (amino acids 208 to 480) expressed in E. coli from pE22bCN3 | – | – | – | – | – | – | – | – | – | – | – | – | – | – | approximately 40% | over 60% | no growth inhibition effect | over 60%
